Data: ChEMBL document CHEMBL5230122, “Natural products and other inhibitors of F1FO ATP synthase” (Eur J Med Chem, 2020)
Square brackets hold non-standard residues; d marks the D form. Peptide text beside a SMILES is read from it. * marks the point of attachment. X3 = CC(C)C[C@@H](CN1CCC[N+]2=C1CCC2)N*; Pip = O=C(O)[C@@H]1CCCCN1; Iva = CC[C@](C)(N)C(=O)O; Aib = CC(C)(N)C(=O)O; βAla = NCCC(=O)O

Tests used:
[1] = Cytotoxicity against mouse L929 cells assessed as reduction in cell viability; format: toxicity, cell-based
SNU-398 = assay: Anticancer activity against human SNU-398 cells expressing high level of SALL4 assessed as reduction in cell viability incubated for 72 hrs by CellTiter-Glo assay; format: functional, cell-based; settings: SNU-398, 72 h
MDA-MB-231 = assay: Antiproliferative activity against human MDA-MB-231 cells assessed as reduction in cell viability incubated for 48 hrs by MTT assay; format: functional, cell-based; settings: MDA-MB-231, 48 h
HL-60 = assay: Anticancer activity against human HL-60 cells assessed inhibition of cell proliferation incubated for 48 hrs by MTT assay; format: functional, cell-based; settings: HL-60, 48 h
[2] = Inhibition of mouse liver mitochondrial ATP synthase by microplate immuno-capture ELISA assay; format: mitochondria, Mitochondria
Bos taurus = species on record: Bos taurus; assay: Inhibition of bovine F0F1-ATPase at 50 uM
MCF7 = assay: Antitumor activity against human MCF7 cells assessed as reduction in cell viability incubated for 24 hrs by MTT assay; format: functional, cell-based; settings: MCF7, 24 h
HCT-116 [3] = assay: Antiproliferative activity against human HCT-116 cells assessed as reduction in cell viability incubated for 72 hrs by MTT assay; format: functional, cell-based; settings: HCT-116, 72 h
N2a = assay: Antiproliferative activity against mouse Neuro2a cells assessed as reduction in cell viability incubated for 48 hrs by MTT assay; format: functional, cell-based
[4] = Antiproliferative activity against human U87G cells assessed as reduction in cell viability incubated for 72 hrs by MTT assay; format: functional, cell-based
K562 = assay: Antitumor activity against human K562 cells assessed as reduction in cell viability incubated for 72 hrs by MTT assay; format: functional, cell-based; settings: K562, 72 h
HCT-116 [5] = assay: Antitumor activity against human HCT-116 cells assessed as reduction in cell viability incubated for 72 hrs by MTT assay; format: functional, cell-based; settings: HCT-116, 72 h
GBM = assay: Anticancer activity against human GBM cells carrying high-throughput GBM sphere assessed as reduction in cell viability incubated for 96 hrs by Cell-Titer-Glo assay; format: functional, cell-based
NCI-H292 = assay: Anticancer activity against human NCI-H292 cells assessed as reduction in cell proliferation incubated for 48 hrs by Calcein AM and Pluronic F-127 staining based fluorescence plate reader analysis; format: functional; settings: NCI-H292, 48 h

CCC[C@H](O)[C@@H](C)C(=O)NC/C=C\C[C@@H](C)[C@@H](O)[C@H](C)[C@@H](O)C/C=C\C[C@H](C)[C@H]1Cc2cc(OC)cc(O)c2C(=O)O1
IC50 [1]: > 1 µg/mL

CC[C@](C)(NC(=O)[C@@H]1CCCCN1C(=O)C(C)(C)NC(=O)[C@@H]1CCCCN1C(C)=O)C(=O)NC(C)(C)C(=O)N[C@@H](CC(C)C)C(=O)NCCC(=O)NCC(=O)NC(C)(C)C(=O)NC(C)(C)C(=O)N1CCCC[C@H]1C(=O)NC(C)(C)C(=O)N[C@@H](C)C(=O)N[C@@H](CC(C)C)C(=O)NC(C)(C)C(=O)N[C@@H](CC(C)C)CN1CCC[N+]2=C1CCC2 (Ac-[Pip][Aib][Pip][Iva][Aib]L[βAla]G[Aib][Aib][Pip][Aib]AL[Aib]-X3)
IC50 (SNU-398): 5 nM

COc1cc(=O)oc(/C=C/C=C/C=C/[C@@H]2O[C@]3(C)[C@@H](OC(C)=O)[C@](C)(O[C@@H]3[C@@H](C)O)[C@H]2O)c1C
IC50 (MDA-MB-231): 80 nM

c1csc(-c2c3ccc(=[N+]4CCCCC4)cc-3oc3cc(N4CCCCC4)ccc23)c1
IC50 (HL-60): 100 nM | IC50 [2]: 3000 nM

COc1cc(=O)oc(/C=C/C=C/C=C/[C@]2(C)O[C@]3(C)[C@@H](O)[C@](C)(O[C@@H]3C)[C@H]2O)c1C
IC50 (MDA-MB-231): > 5430 nM

CC(=O)Oc1ccc(/C=C/c2cc(OCCCC[P+](c3ccccc3)(c3ccccc3)c3ccccc3)cc(OC(C)=O)c2)cc1
inhibition (Bos taurus): > 40%

CC[C@H]1O[C@@]2(C)[C@H](O)[C@@]1(C)O[C@@H](/C=C/C=C/C=C/c1oc(=O)cc(OC)c1C)[C@@H]2O
IC50 (MDA-MB-231): 8790 nM

Oc1ccc(/C=C/c2cc(O)cc(O)c2)cc1 [RESVERATROL]
IC50 (MCF7): 80000 nM

CO[C@H]1[C@H](O[C@@H]2C[C@@H]3C[C@H](OCCCC=O)[C@@]4(O)C[C@H](C[C@H](O)[C@@H]5C[C@H](C)[C@H](/C=C\C=C\[C@H](C)C[C@H](C2)O3)O5)OC4=O)O[C@@H](C)[C@H](O)[C@H]1O
IC50 (HCT-116 [3]): 54 nM | IC50 (N2a): 84 nM | IC50 [4]: 61 nM

CC[C@@H]1O[C@@](C)(/C=C/C=C/C=C/c2cc(OC)c(C)c(=O)o2)[C@@H](O)[C@]1(C)O
IC50 (MDA-MB-231): > 50000 nM

CC[C@](C)(NC(=O)[C@H](CC(C)C)NC(=O)[C@H](C)NC(=O)C(C)(C)NC(=O)[C@@H]1CCCCN1C(=O)C(C)(C)NC(=O)C(C)(C)NC(=O)CNC(=O)CCNC(=O)[C@H](CC(C)C)NC(=O)[C@](C)(CC)NC(=O)[C@](C)(CC)NC(=O)[C@@H]1CCCCN1C(=O)C(C)(C)NC(=O)[C@@H]1CCCCN1C(C)=O)C(=O)N[C@@H](CC(C)C)CN1CCC[N+]2=C1CCC2 (Ac-[Pip][Aib][Pip][Iva][Iva]L[βAla]G[Aib][Aib][Pip][Aib]AL[Iva]-X3)
IC50 (SNU-398): 6 nM

CCC(=O)[C@@H](C)[C@H](OC(C)=O)[C@@H](C)/C=C/C(=O)O[C@@H]1[C@H](C)[C@H](CC[C@H](/C=C/C=C/C[C@@H](C)[C@H](OC(C)=O)[C@@]2(C)OC=C(C)C2=O)CC)O[C@]2(CC[C@H](C)[C@H](C[C@@H](C)OC(C)=O)O2)[C@H]1C
IC50 (K562): 900 nM | IC50 (HCT-116 [5]): 3100 nM

CC(C)[C@@H]1CC[C@@H](C)C[C@H]1OC(=O)Cn1c(-c2cccc(C(F)(F)F)c2)[n+](C)c2ccccc21
IC50 (GBM): 470 nM

COC[C@@H](C[C@H]1O[C@@](O)([C@H](O)[C@@H]2C[C@H](OC)[C@@H](O)CC/C=C(C)/C=C/[C@@H](O[C@@H]3O[C@@H](C)[C@H](OC)[C@@H](O)[C@@H]3O)[C@H](C)/C=C/C=C(C)/C=C(\C)C(=O)O2)[C@H](C)[C@@H](O)[C@H]1C)O[C@H]1C[C@](C)(O)[C@@H](O[C@H]2C[C@@H](OC)[C@H](O)[C@@H](C)O2)[C@H](C)O1
IC50 (NCI-H292): 110 nM

Ic1ccc(-c2c3ccc(=[N+]4CCCCC4)cc-3oc3cc(N4CCCCC4)ccc23)cc1
IC50 (HL-60): 100 nM | IC50 [2]: 3900 nM
